Experimental data from ChEMBL document CHEMBL4808199, “Cyclopentenone-Containing Tetrahydroquinoline and Geldanamycin Alkaloids from Streptomyces malaysiensis as Potential Anti-Androgens against Prostate Cancer Cells” (J Nat Prod, 2021).
Activity calls are given as the source filed them. The calls are words filed in the database; no cut-off is given here.

Assays:
MDA-MB-231 = assay: Cytotoxicity against human MDA-MB-231 cells; type: functional, cell-based
RWPE-1 = assay: Cytotoxicity against human RWPE-1 cells; type: cell-based
LNCaP C4-2B [1] = assay: Cytotoxicity against human C42B cells; type: functional, cell-based
CWR22R [2] = assay: Cytotoxicity against human 22Rv1 cells; type: functional, cell-based
NCI-H446 = assay: Cytotoxicity against human H446 cells; type: functional, cell-based
MGC-803 = assay: Cytotoxicity against human MGC-803 cells; type: functional, cell-based
[3] = Selective index, ratio of IC50 for human RWPE1 to IC50 for human LNCaP C4-2B cells; type: toxicity; settings: RWPE1 cells and LNCaP C4-2B cells, read-out: Selectivity Index
CWR22R [4] = assay: Inhibition of androgen receptor protein expression in human 22Rv1 cells incubated for […] by Immunoblotting analysis; type: functional, cell-based
LNCaP C4-2B [5] = assay: Inhibition of androgen receptor protein expression in human C4-2B cells incubated for […] by Immunoblotting analysis; type: functional, cell-based
LNCaP C4-2B [6] = assay: Inhibition of androgen receptor mRNA expression in human C4-2B cells incubated for […] by qRT-PCR analysis; type: functional, cell-based
CWR22R [7] = assay: Induction of apoptosis in human 22Rv1 cells assessed as inhibition of Cmyc protein expression at 0.15 to 0.6 uM incubated for […] by Immunoblotting analysis; type: functional, cell-based; settings: dose 0.15-0.6 µM, time […]
LNCaP C4-2B [8] = assay: Induction of apoptosis in human C4-2B cells assessed as inhibition of Cmyc protein expression at 0.075 to 0.3 uM incubated for […] by Immunoblotting analysis; type: functional, cell-based; settings: dose 0.075-0.3 µM
[9] = Selective index, ratio of IC50 for human RWPE1 to IC50 for human H446 cells
LNCaP C4-2B [10] = assay: Induction of cell cycle arrest in human C4-2B cells assessed as accumulation of cells at G0/G1 phase at 0.3 uM incubated for 48 hrs by RED-B-HLi fluorescence assay (reference value: 41.57%); type: functional
LNCaP C4-2B [11] = assay: Induction of cell cycle arrest in human C4-2B cells assessed as accumulation of cells at S phase at 0.3 uM incubated for 48 hrs by RED-B-HLi fluorescence assay (reference value: 42.69%); type: functional
LNCaP C4-2B [12] = assay: Induction of cell cycle arrest in human C4-2B cells assessed as accumulation of cells at G2-M phase at 0.3 uM incubated for 48 hrs by RED-B-HLi fluorescence assay (reference value: 15.74%); type: functional
LNCaP C4-2B [13] = assay: Induction of apoptosis in human C4-2B cells assessed as increase in caspase 3/7 activity at 0.3 uM after 24 hrs relative to control; type: functional, cell-based
CWR22R [14] = assay: Induction of apoptosis in human 22Rv1 cells assessed as increase in caspase 3/7 activity at 0.3 uM after 24 hrs relative to control; type: functional, cell-based
LNCaP C4-2B [15] = assay: Induction of apoptosis in human C4-2B cells assessed as increase in cleaved 7 level after 24 hrs by immunoblotting analysis relative to control; type: functional, cell-based
CWR22R [16] = assay: Induction of apoptosis in human 22Rv1 cells assessed as increase in cleaved 7 level after 24 hrs by immunoblotting analysis relative to control; type: functional, cell-based
LNCaP C4-2B [17] = assay: Induction of apoptosis in human C4-2B cells assessed as increase in cleaved PARP1 level after 24 hrs by immunoblotting analysis relative to control; type: functional, cell-based
CWR22R [18] = assay: Induction of apoptosis in human 22Rv1 cells assessed as increase in cleaved PARP1 level after 24 hrs by immunoblotting analysis relative to control; type: functional, cell-based
LNCaP C4-2B [19] = assay: Inhibition of colony formation in human C4-2B cells at 0.075 to 0.3 uM for 12 days by crystal violet staining based assay; type: functional, cell-based; settings: dose 0.075-0.3 µM, time 12.0 day
CWR22R [20] = assay: Inhibition of colony formation in human 22Rv1 cells at 0.075 to 0.3 uM for 12 days by crystal violet staining based assay; type: functional, cell-based; settings: dose 0.075-0.3 µM, time 12.0 day
CWR22R [21] = assay: Inhibition of androgen receptor mRNA expression in human 22Rv1 cells incubated for […] by […] analysis; type: functional, cell-based
LNCaP C4-2B [22] = assay: Induction of apoptosis in human C4-2B cells assessed as inhibition of Cyclin E protein expression at 0.075 to 0.3 uM incubated for […] by Immunoblotting analysis; type: functional, cell-based; settings: dose 0.075-0.3 µM
CWR22R [23] = assay: Induction of apoptosis in human 22Rv1 cells assessed as inhibition of Cyclin E protein expression at 0.15 to 0.6 uM incubated for […] by Immunoblotting analysis; type: functional, cell-based; settings: dose 0.15-0.6 µM
LNCaP C4-2B [24] = assay: Induction of apoptosis in human C4-2B cells assessed as inhibition of KLK2 mRNA expression at 0.075 to 0.3 uM incubated for […] by qRT-PCR analysis; type: functional, cell-based; settings: dose 0.075-0.3 µM
CWR22R [25] = assay: Induction of apoptosis in human 22Rv1 cells assessed as inhibition of KLK2 mRNA expression at 0.15 to 0.6 uM incubated for […] by qRT-PCR analysis; type: functional, cell-based; settings: dose 0.15-0.6 µM
LNCaP C4-2B [26] = assay: Induction of apoptosis in human C4-2B cells assessed as inhibition of KLK3 mRNA expression at 0.075 to 0.3 uM incubated for […] by qRT-PCR analysis; type: functional, cell-based; settings: dose 0.075-0.3 µM
CWR22R [27] = assay: Induction of apoptosis in human 22Rv1 cells assessed as inhibition of KLK3 mRNA expression at 0.15 to 0.6 uM incubated for […] by qRT-PCR analysis; type: functional, cell-based; settings: dose 0.15-0.6 µM
LNCaP C4-2B [28] = assay: Induction of morphological changes in human C4-2B cells assessed as decrease in cell size incubated for 24 hrs by microscopy; type: functional, cell-based
LNCaP C4-2B [29] = assay: Induction of morphological changes in human C4-2B cells assessed as increase in intracellular spaces incubated for 24 hrs by microscopy; type: functional, cell-based

COC1=C2C[C@@H](C)C[C@H](OC)[C@H](O)[C@@H](C)/C=C(\C)[C@H](OC(N)=O)[C@@H](OC)/C=C\C=C(/C)C(=O)NC(=CC1=O)C2=O [GELDANAMYCIN]
IC50 (MDA-MB-231): 1.9 µM
IC50 (RWPE-1): 3.8 µM
IC50 (LNCaP C4-2B [1]): 0.5 µM
IC50 (CWR22R [2]): 0.85 µM
IC50 (NCI-H446): 2.2 µM
IC50 (MGC-803): 3.3 µM
selectivity ratio [3]: 7.6

CO[C@H]1/C=C\C=C(/C)C(=O)NC2=CC(=O)C(O)=C(C[C@@H](C)C[C@H](OC)[C@H](O)[C@@H](C)/C=C(\C)[C@@H]1OC(N)=O)C2=O
IC50 (MDA-MB-231): 17 µM
IC50 (LNCaP C4-2B [1]): 11 µM
IC50 (CWR22R [2]): 25 µM
IC50 (NCI-H446): 25 µM
IC50 (MGC-803): 19 µM

CNC(=O)c1ccc(N2C(=S)N(c3ccc(C#N)c(C(F)(F)F)c3)C(=O)C2(C)C)cc1F [ENZALUTAMIDE]
IC50 (RWPE-1): > 40 µM
IC50 (CWR22R [2]): 38 µM
selectivity ratio [3]: > 2.2

COC[C@]1(CCC(C)=C(C)C)Nc2ccc(C(=O)NC3=C(O)CCC3=O)cc2C[C@@H]1Cl
inhibition (CWR22R [4]): Active
inhibition (LNCaP C4-2B [5]): Active
inhibition (LNCaP C4-2B [6]): Active
IC50 (MDA-MB-231): 0.2 µM
IC50 (RWPE-1): 0.21 µM
Activity (CWR22R [7]): Active
Activity (LNCaP C4-2B [8]): Active
IC50 (LNCaP C4-2B [1]): 0.067 µM
IC50 (CWR22R [2]): 0.27 µM
IC50 (NCI-H446): 0.07 µM
IC50 (MGC-803): 0.11 µM
Selectivity Index [9]: 3.1
Activity (LNCaP C4-2B [10]): 56.03%
Activity (LNCaP C4-2B [11]): 24.3%
Activity (LNCaP C4-2B [12]): 19.67%
Activity (LNCaP C4-2B [13]): Active
Activity (CWR22R [14]): Active
Activity (LNCaP C4-2B [15]): Dose-Dependent Effect
Activity (CWR22R [16]): Dose-Dependent Effect
Activity (LNCaP C4-2B [17]): Dose-Dependent Effect
Activity (CWR22R [18]): Dose-Dependent Effect
inhibition (LNCaP C4-2B [19]): Active
inhibition (CWR22R [20]): Active
inhibition (CWR22R [21]): Active
Activity (LNCaP C4-2B [22]): Active
Activity (CWR22R [23]): Active
Activity (LNCaP C4-2B [24]): Active
Activity (CWR22R [25]): Active
Activity (LNCaP C4-2B [26]): Active
Activity (CWR22R [27]): Active
Activity (LNCaP C4-2B [28]): Active
Activity (LNCaP C4-2B [29]): Active

COC1=C2C[C@@H](C)C[C@H](OC)[C@H](O)[C@@H](C)/C=C(\C)[C@H](OC(N)=O)[C@@H](OC)/C=C\C=C(/C)C(=O)NC(=C(SC)C1=O)C2=O
IC50 (MDA-MB-231): 5.2 µM
IC50 (LNCaP C4-2B [1]): 3.6 µM
IC50 (CWR22R [2]): 3.7 µM
IC50 (NCI-H446): 3.9 µM
IC50 (MGC-803): 7.9 µM

CC[C@@H]1[C@@H](C)O[C@@](OC)(/C(C)=C/[C@H](C)[C@H]2OC(=O)/C=C/C=C/[C@H](C)[C@@H]([C@@H](C)/C=C(\C)[C@@]3(OC)C[C@@H](OC)[C@H](CC)[C@@H](C)O3)OC(=O)/C=C/C=C/[C@@H]2C)C[C@H]1OC
IC50 (MDA-MB-231): 7.2 µM
IC50 (LNCaP C4-2B [1]): 14 µM
IC50 (CWR22R [2]): 23 µM
IC50 (NCI-H446): 25 µM
IC50 (MGC-803): 10 µM

CC[C@@H]1[C@@H](C)O[C@@](OC)([C@@H](C)[C@H](O)[C@H](C)[C@H]2OC(=O)/C=C/C=C/[C@H](C)[C@@H]([C@@H](C)[C@@H](O)[C@H](C)[C@@]3(OC)C[C@@H](OC)[C@H](CC)[C@@H](C)O3)OC(=O)/C=C/C=C/[C@@H]2C)C[C@H]1OC
IC50 (MDA-MB-231): > 40 µM
IC50 (LNCaP C4-2B [1]): > 40 µM
IC50 (CWR22R [2]): > 40 µM
IC50 (NCI-H446): > 40 µM
IC50 (MGC-803): > 40 µM

CC[C@@H](/C=C/C(=O)[C@@H](C)[C@H](O)[C@H](C)[C@H]1OC(=O)/C=C/C=C/[C@H](C)[C@@H]([C@@H](C)[C@@H](O)[C@H](C)C(=O)/C=C/[C@H](CC)[C@@H](C)O)OC(=O)/C=C/C=C/[C@@H]1C)[C@@H](C)O
IC50 (MDA-MB-231): > 40 µM
IC50 (LNCaP C4-2B [1]): 25 µM
IC50 (CWR22R [2]): > 40 µM
IC50 (NCI-H446): 25 µM
IC50 (MGC-803): > 40 µM

COC(=O)[C@@]1(O)C(OC)=C2C[C@@H](C)C[C@H](OC)[C@H](O)[C@@H](C)/C=C(\C)[C@H](OC(N)=O)[C@@H](OC)/C=C\C=C(/C)C(=O)N[C@@H]1C2=O
IC50 (MDA-MB-231): > 40 µM
IC50 (LNCaP C4-2B [1]): > 40 µM
IC50 (CWR22R [2]): > 40 µM
IC50 (NCI-H446): 2.9 µM
IC50 (MGC-803): > 40 µM

CO[C@H]1C[C@H](C)Cc2cc(O)cc(c2)NC(=O)/C(C)=C/CC[C@H](OC)[C@@H](OC(N)=O)/C(C)=C/[C@H](C)[C@H]1O
IC50 (MDA-MB-231): > 40 µM
IC50 (LNCaP C4-2B [1]): 32 µM
IC50 (CWR22R [2]): 35 µM
IC50 (NCI-H446): 28 µM
IC50 (MGC-803): > 40 µM
